Test results as given in patent publication US9880171B2, “iASPP phosphorylation and metastatic potential” (LUDWIG INSTITUTE FOR CANCER RESEARCH LTD., priority 2012, dated 2018).

Tests used:
Type in all cases: cell-based, human
[1] = tested on: slow-migrating iASPP in H1299 cells; experiment: induction of slow-migrating iASPP by chemotherapeutic agents in H1299 cells (WB); conditions: H1299, overnight treatment (oxidative stress inducers 1-3 h; EDTA 4 mM 1 hour), antibody LX49.3
Experimental: FIG. 3. […] H1299 cells were treated overnight with the indicated concentrations of mitosis-arrest drugs nocodazole, colchicine and taxol, DNA damaging drugs, or oxidative stress inducers (1-3 h). Total lysate was prepared in UREA buffer, and iASPP expression patterns were determined using antibody LX49.3. […] Mitotic-arrest drugs were applied to H1299 cells to induce iASPP mobility shift. Floating and adherent cells were collected, and iASPP expression pattern was determined by western blotting (WB). C. […] Left panel, cells in mitosis (floating) and interphase (adherent) were collected by mitotic shake-off, and iASPP expression pattern was determined by WB. Right panel, H1299 cells after Taxol treatment, or mitotic shake-off were immunofluorescence stained using antibody LX49.3. In mitotic shake-off experiment, mitotic shake-off cells were cytospun to slides; the remaining adherent cells after shaking were scraped off and used as interphase control. […] Melanoma cells were treated with nocodazole overnight and iASPP expression patterns from total cell lysate was determined by WB.
FIG. 4. A. Floating and adherent H1299 cells separately collected by mitotic shake-off (FIG. 3C) were stained with propidium iodide (PI), followed by FACS analysis. […] B. H1299 cells were subjected to treatment of 10 μM nocodazole for 24 hours (Nocodazole), on ice for 30 minutes (Cold shock), or 4 mM EDTA for 1 hour (EDTA). Left panel: iASPP expression pattern was analysed by immunoblotting. Right panel: phase contrast images were taken before collection of the cells for WB analysis. Bar=20 μm.
(§1) For WB, cells were lysed in buffer containing 8 M urea, 1 M thiourea, 0.5% CHAPS, 50 mM DTT, and 24 mM spermine. A total of 40 μg of protein extract was loaded per lane into SDS-polyacrylamide gels. Gels were transferred onto nitrocellulose membrane (Protran) and the resulting blots incubated first with primary antibody overnight at 4° C. and then with the appropriate secondary horseradish peroxidize-conjugated antibody (Dako). The results were visualized by enhanced chemiluminescent detection (Amersham Biosciences) using X-ray film (Fujifilm). For cell lysate immunoprecipitation, cells were dissolved in NP40 buffer (50 mM Tris-HCl pH 8.0, 150 mM NaCl, 1% NP-40) with protease inhibitor cocktail mix (Roche Diagnostics). Cells were further thoroughly broken by ultrasonication, followed by spinning for 1 hour. Achieved suspension was adjusted to 1-2 mg/ml using NP40 buffer and incubated with 20 μl nickel beads, glutathione beads, or protein A beads (with 2 μg required antibody) for 2 h at room temperature. The beads were washed for four times with NP40 buffer, boiled for 5 min in Laemmli sample buffer, and applied for Western blotting. For pure protein immunoprecipitation, 5-10 μg purified proteins were mixed in NP40 buffer with 1 mg/ml BSA for 2 h at room temperature.
As mitotic cells often detach from the tissue culture dish, floating cells were separated from adherent cells after the treatment of Nocodozole, Taxol and Colchicine.

[2] = tested on: slow-migrating iASPP in melanoma cell lines; experiment: induction of slow-migrating iASPP in melanoma cell lines (WB); conditions: panel of melanoma cell lines, nocodazole overnight
Experimental: FIG. 3. Mitotic arrests induces slow-migrating nuclear iASPP. A. Mitosis-arresting (i.e., apoptosis-inducing) chemotherapeutic drugs induce slow-migrating iASPP. H1299 cells were treated overnight with the indicated concentrations of mitosis-arrest drugs nocodazole, colchicine and taxol, DNA damaging drugs, or oxidative stress inducers (1-3 h). Total lysate was prepared in UREA buffer, and iASPP expression patterns were determined using antibody LX49.3. B. Slow-migrating iASPP exclusively exists in mitotic cells after drug induction. Mitotic-arrest drugs were applied to H1299 cells to induce iASPP mobility shift. Floating and adherent cells were collected, and iASPP expression pattern was determined by western blotting (WB). C. Slow-migrating iASPP exists in natural mitotic cells and localized in nucleus (as determining by staining with the nuclear specific marker Topro). Left panel, cells in mitosis (floating) and interphase (adherent) were collected by mitotic shake-off, and iASPP expression pattern was determined by WB. Right panel, H1299 cells after Taxol treatment, or mitotic shake-off were immunofluorescence stained using antibody LX49.3. […] Melanoma cells were treated with nocodazole overnight and iASPP expression patterns from total cell lysate was determined by WB. […]

[3] = tested on: iASPP modification and p53-iASPP binding in WM278 cells; experiment: iASPP modification and p53 co-immunoprecipitation in WM278 cells; conditions: 0.4 μM JNJ or 10 μM nocodazole overnight
Experimental: as §1

Compound: COC(=O)Nc1nc2ccc(C(=O)c3cccs3)cc2[nH]1 [Nocodazole]
- induction of slow-migrating iASPP isoform [1]: induced
- induction of slow-migrating iASPP isoform [2]: induced the conversion of faster migrating iASPP into the slower migrating iASPP isoform
- amount of modified iASPP [3]: induced iASPP modification
